Like-named read-outs stand apart in the source and are kept apart here.
Experiments:
HCT116 WT cells = test: HCT116 WT cell line proliferation (CellTiter-Glo cell viability, 6 days); format: cell-based; conditions: HCT116 WT (parent) cells, 6 days of treatment, CellTiter-Glo cell viability, read-out: HCT-116 WT IC50
Summary of the method: (§1)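 Isogenic HCT116 pair (parent and MTAP double-allele knockout) in RPMI 1640 + 10% FBS, exposed 6 days to compound: 8–9-point 1:3 dilutions from 1 or 10 μM top, or 22-point 1:2 dilutions from 10 or 50 μM top. CellTiter-Glo luminescence; IC50 from sigmoidal fit (Hill −1) or 4-parameter logistic.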

HCT116 MTAP null cells = test: HCT116 MTAP null cell line proliferation (CellTiter-Glo cell viability, 6 days); format: cell-based; conditions: HCT116 MTAP null cells, 6 days of treatment, CellTiter-Glo cell viability, read-out: HCT-116 MTAP null IC50
Summary of the method: as §1

Row | Compound | IC50 (HCT116 WT cells; Homo sapiens, HCT-116, 144 h) [µM] | IC50 (HCT116 MTAP null cells; HCT116-MTAP null, 144 h) [nM] | IC50 (HCT116 WT cells) [µM] | IC50 (HCT116 MTAP null cells) [nM]
1 | Nc1nc2cnc(C(=O)N3CCOCC3c3ccc(F)c(OC(F)(F)F)c3)cc2c2c1COC2 (racemic) [Example 345, (4-amino-1,3-dihydrofuro[3,4-c][1,7]naphthyridin-8-yl)((3R)-3-(4-fluoro-3-(trifluoromethoxy)phenyl)-4-morpholinyl)methanone and (4-amino-1,3-dihydrofuro[3,4-c][1,7]naphthyridin-8-yl)((3S)-3-(4-fluoro-3-(trifluoromethoxy)phenyl)-4-morpholinyl)methanone] | 19.1 | 346 | – | –
2 | Nc1nc2cnc(C(=O)N3CCOCC3c3ccc(OC(F)F)c(F)c3)cc2c2c1COC2 (racemic) [Example 383, (4-amino-1,3-dihydrofuro[3,4-c][1,7]naphthyridin-8-yl)((3R)-3-(4-(difluoromethoxy)-3-fluorophenyl)-4-morpholinyl)methanone and (4-amino-1,3-dihydrofuro[3,4-c][1,7]naphthyridin-8-yl)((3S)-3-(4-(difluoromethoxy)-3-fluorophenyl)-4-morpholinyl)methanone] | – | – | 13.9 | 437
3 | C[C@H]1OCc2c1c(N)nc1cnc(C(=O)N3[C@@H](C)COC[C@H]3c3ccc(C(F)(F)F)nc3)cc21 (racemic) [Example 308, ((3R)-4-amino-3-methyl-1,3-dihydrofuro[3,4-c][1,7]naphthyridin-8-yl)((3R,5S)-3-methyl-5-(6-(trifluoromethyl)-3-pyridinyl)-4-morpholinyl)methanone and ((3R)-4-amino-3-methyl-1,3-dihydrofuro[3,4-c][1,7]naphthyridin-8-yl)((3S,5R)-3-methyl-5-(6-(trifluoromethyl)-3-pyridinyl)-4-morpholinyl)methanone] | 1.72 | 46 | – | –
4 | C[C@H]1COC[C@@H](c2ccc(C(F)(F)F)cn2)N1C(=O)c1cc2c3c(c(N)nc2cc1F)COC3 (mixture of isomers) [Example 304, (4-amino-7-fluoro-1,3-dihydrofuro[3,4-c]quinolin-8-yl)((3R,5S)-3-methyl-5-(5-(trifluoromethyl)-2-pyridinyl)-4-morpholinyl)methanone and (4-amino-7-fluoro-1,3-dihydrofuro[3,4-c]quinolin-8-yl)((3S,5R)-3-methyl-5-(5-(trifluoromethyl)-2-pyridinyl)-4-morpholinyl)methanone] | 0.572 | 710 | – | –
5 | CCOc1ccc([C@@H]2COCCN2C(=O)c2ccc3nc(N)c4c(c3c2)CO[C@@H]4C)nn1 (racemic) [Example 393, ((3R)-4-amino-3-methyl-1,3-dihydrofuro[3,4-c]quinolin-8-yl)((3R)-3-(6-ethoxy-3-pyridazinyl)-4-morpholinyl)methanone and ((3R)-4-amino-3-methyl-1,3-dihydrofuro[3,4-c]quinolin-8-yl)((3S)-3-(6-ethoxy-3-pyridazinyl)-4-morpholinyl)methanone] | > 50 | 971 | – | –
6 | (4-amino-7-fluoro-1,3- dihydrofuro[3,4-c]quinolin-8- yl)((3R)-3-hydroxy-3-(4- (trifluoromethyl)phenyl)-1- pyrrolidinyl)methanone and (4-amino-7-fluoro-1,3- dihydrofuro[3,4-c]quinolin-8- yl)((3S)-3-hydroxy-3-(4- (trifluoromethyl)phenyl)-1- pyrrolidinyl)methanone [Example 441] | – | – | 15.6 | 683
7 | C[C@H]1OCc2c1c(N)nc1ccc(C(=O)N3C[C@H](c4ccc(Cl)cc4)C[C@H]3C3CC3)cc21 [Example 398, ((3R)-4-amino-3-methyl-1,3-dihydrofuro[3,4-c]quinolin-8-yl)((2S,4S)-4-(4-chlorophenyl)-2-cyclopropyl-1-pyrrolidinyl)methanone] | 13.2 | 609 | – | –
8 | COc1ccc(C2COCCN2C(=O)c2ccc3nc(N)c4c(c3c2)COC4)cc1 (racemic) [Example 365, (4-amino-1,3-dihydrofuro[3,4-c]quinolin-8-yl)-[rac-(3S)-3-(4-methoxyphenyl)morpholin-4-yl]methanone] | > 10 | 1560 | – | –
9 | CCOc1ccc(C2COCCN2C(=O)c2cc3c4c(c(N)nc3cn2)[C@@H](C)OC4)nn1 (mixture of isomers) [Example 325, ((3R)-4-amino-3-methyl-1,3-dihydrofuro[3,4-c][1,7]naphthyridin-8-yl)((3R)-3-(6-ethoxy-3-pyridazinyl)-4-morpholinyl)methanone and ((3R)-4-amino-3-methyl-1,3-dihydrofuro[3,4-c][1,7]naphthyridin-8-yl)((3S)-3-(6-ethoxy-3-pyridazinyl)-4-morpholinyl)methanone] | > 10 | 771 | – | –
10 | C[C@H]1OCc2c1c(N)nc1ccc(C(=O)N3[C@@H](C)COC[C@H]3c3ccc(C(F)(F)F)cn3)cc21 (racemic) [Example 372, ((3R)-4-amino-3-methyl-1,3-dihydrofuro[3,4-c]quinolin-8-yl)((3R,5S)-3-methyl-5-(5-(trifluoromethyl)-2-pyridinyl)-4-morpholinyl)methanone and ((3R)-4-amino-3-methyl-1,3-dihydrofuro[3,4-c]quinolin-8-yl)((3S,5R)-3-methyl-5-(5-(trifluoromethyl)-2-pyridinyl)-4-morpholinyl)methanone] | 0.613 | 23 | – | –
11 | CC1CN(C(=O)c2ccc3nc(N)c4c(c3c2)CO[C@@H]4C)CC1c1ccc(Br)cc1 (stereo partly drawn) [Example 402, ((3R)-4-amino-3-methyl-1,3-dihydrofuro[3,4-c]quinolin-8-yl)(3-(4-bromophenyl)-4-methylpyrrolidin-1-yl)methanone] | 13.3 | 833 | – | –
12 | Nc1nc2ccc(C(=O)N3CCOCC3c3ccc(F)cc3)cc2c2c1COC2 (racemic) [Example 363, (4-amino-1,3-dihydrofuro[3,4-c]quinolin-8-yl)-[rac-(3S)-3-(4-fluorophenyl)morpholin-4-yl]methanone] | > 10 | 1910 | – | –

Continued, values first:

Row | IC50 (HCT116 WT cells; Homo sapiens, HCT-116, 144 h) [µM] | IC50 (HCT116 MTAP null cells; HCT116-MTAP null, 144 h) [nM] | IC50 (HCT116 WT cells) [µM] | IC50 (HCT116 MTAP null cells) [nM] | Compound
13 | 2.59 | 210 | – | – | Nc1nc2cnc(C(=O)N3CCOC[C@@H]3c3ccc(OC(F)(F)F)cc3)cc2c2c1CCC2 [Example 514, (6-amino-8,9-dihydro-7H-cyclopenta[c][1,7]naphthyridin-2-yl)((3S)-3-(4-(trifluoromethoxy)phenyl)-4-morpholinyl)methanone]
14 | > 10 | > 10000 | – | – | Nc1nc2cnc(C(=O)N3CCC(F)(F)C[C@H]3c3ccc(C(F)(F)F)cc3)cc2c2c1COC2 (single isomer, unassigned) [Example 599]
15 | > 10 | 843 | – | – | Nc1nc2ncc(C(=O)N3CCOC[C@@H]3c3ccc(OC(F)(F)F)cc3)cc2c2c1COC2 [Example 507, (4-amino-1,3-dihydrofuro[3,4-c][1,8]naphthyridin-8-yl)-[(3S)-3-[4-(trifluoromethoxy)phenyl]morpholin-4-yl]methanone]
16 | 7.49 | > 1000 | – | – | Nc1nc2ccc(C(=O)N3CCOC[C@@H]3c3ccc(C(F)(F)F)cc3)cc2c2ccsc12 (single isomer, unassigned) [Example 488]
17 | 5.73 | 228 | – | – | Nc1nc2cnc(C(=O)N3CCOC[C@@H]3c3ccc(C(F)(F)F)s3)cc2c2c1COC2 (single isomer, unassigned) [Example 617]
18 | 5.47 | 195 | – | – | Cc1ccc([C@@H]2CN(C(=O)c3cc4c5c(c(N)nc4cc3F)COC5)CC2(C)C)cc1 (single isomer, unassigned) [Example 464]
19 | 16.6 | 189 | – | – | C[C@H]1OCc2c1c(N)nc1ccc(C(=O)N3C[C@@H](O)[C@H](c4ccc(Cl)cc4)C3)cc21 (single isomer, unassigned) [Example 466]
20 | 3.51 | 71 | – | – | CC1(C)CN(C(=O)c2cc3c4c(c(N)nc3cc2F)COC4)C[C@H]1c1ccc(F)cc1 (single isomer, unassigned) [Example 465]
21 | 0.867 | 39 | – | – | Nc1nc2ccc(C(=O)N3CCOC[C@@H]3c3ccc(C(F)(F)F)cc3)cc2c2cnccc12 [Example 503, (5-aminobenzo[c][2,6]naphthyridin-9-yl)((3S)-3-(4-(trifluoromethyl)phenyl)-4-morpholinyl)methanone]
22 | 7.95 | 239 | – | – | Nc1nc2ccc(C(=O)N3CCOC[C@@H]3c3ncc(Br)cc3F)cc2c2c1COC2 (single isomer, unassigned) [Example 622]
23 | > 50 | 914 | – | – | C[C@H]1OCc2c1c(N)nc1ccc(C(=O)N3CC(c4ccc(C(F)(F)F)cn4)C3)cc21 [Example 421, ((3R)-4-amino-3-methyl-1,3-dihydrofuro[3,4-c]quinolin-8-yl)(3-(5-(trifluoromethyl)-2-pyridinyl)-1-azetidinyl)methanone]
24 | 0.372 | 19 | – | – | C[C@@H]1COC[C@H](c2ccc(OC(F)(F)F)cc2)N1C(=O)c1cc2c3c(c(N)nc2cn1)COC3 [Example 525, (4-amino-1,3-dihydrofuro[3,4-c][1,7]naphthyridin-8-yl)((3R,5S)-3-methyl-5-(4-(trifluoromethoxy)phenyl)-4-morpholinyl)methanone]
25 | 4.8 | > 1000 | – | – | Nc1nc2ccc(C(=O)N3CCCC[C@@H]3c3ccc(C(F)(F)F)cc3)cc2c2ccsc12 (single isomer, unassigned) [Example 490]
26 | > 10 | 300 | – | – | Nc1nc2cnc(C(=O)N3CCOC[C@@H]3c3cc(Cl)c(Cl)s3)cc2c2c1COC2 (single isomer, unassigned) [Example 618]
27 | > 10 | > 1000 | – | – | Cc1ccc([C@@H]2COCCN2C(=O)c2ccc3nc(N)c4c(c3c2)COC4)cn1 (single isomer, unassigned) [Example 605]
